{"source": "patent US9226929B2", "about": "“Pharmaceutically active disubstituted triazine derivatives” (Bayer Intellectual Property GMBH, priority 2011, dated 2016)", "system": "cellular CDK9 activity (RNA Polymerase II Ser2 phosphorylation)", "test": "RNA-Polymerase II Ser2 Cellular Phosphorylation Assay", "format": "cell-based", "conditions": "Homo sapiens; HCT-116 cells, normalized with tubulin; read-out: RNA Polymerase II Ser2 Phosphorylation (activity range), IC50", "method": "3.1 RNA-Polymerase II Ser2 Cellular Phosphorylation Assay:\nHCT-116 cells (DSMZ, Braunschweig, Germany) were maintained in Mc Coy's cell culture medium+glutamine (PAN Biotech GmbH, Aidenbach, Germany) supplemented with 10% fetal calf serum (PAA Laboratories GmbH, Pasching, Austria) and grown at 37° C., 5% CO2. For the cellular phosphorylation assay, cells were seeded with 2×10^5 cells/well/1 ml in 24-well plates (Greiner Bio One, Frickenhausen, Germany; catalog #662160). The compounds of general formula (I) summarized in Table 6 were diluted from a 10 mM DMSO stock solution 1:10 in a total volume of 15 μL DMSO. After overnight incubation at 37° C./5% CO2, 1.5 μL of a compound diluted in DMSO was added to each sample well. Wells with cells and 0.15% DMSO in culture medium were used as positive controls, wells without cells and 0.15% DMSO in culture medium were used as negative controls. […] Phosphorylation of RNA Polymerase II Ser2 and tubulin levels for normalization were analyzed afterwards with the Multi-Array technology (Meso Scale Discovery, Gaithersburg, Md., USA), a combination of antibody coupled electrochemiluminescence detection and patterned arrays. […] Finally, plates were washed three times with Tris Wash Buffer, 150 μl 2× Read Buffer (Meso Scale Discovery) were added per well and plates were analyzed immediately in a Sector Imager from Meso Scale Discovery. […]"}
{"smiles": "NS(=O)(=O)Cc1cccc(Nc2ncnc(N3CCc4ncccc4C3)n2)c1", "note": "[Compound B38, 3-[(4-(7,8-Dihydro-1,6-naphthyridin-6(5H)-yl)-1,3,5-triazin-2-yl)amino]-benzenemethanesulfonamide]", "values": [{"measurement": "IC50", "result": "> 10", "unit": "µM"}]}
